According to article PMC7377474, “Preclinical characterization of CPL302-253, a selective inhibitor of PI3Kδ, as the candidate for the inhalatory treatment and prevention of Asthma” (PLoS ONE, 2020):

Assays:
Format in all cases: cell-based
[1] = target: T1, EDNRA (Homo sapiens, UniProt P25101); test: SafetyScan44; conditions: 10 μM
T1 construct: purchased DiscoverX (Eurofins) SafetyScan44
Procedure: (§1) SafetyScan44 assay was performed by DiscoverX according to service provider’s protocol.

[2] = target: T2, COX1 (Homo sapiens, UniProt P23219); test: SafetyScan44; conditions: 10 μM; Inhibitor mode
T2 construct: purchased DiscoverX (Eurofins) SafetyScan44
Procedure: as §1

[3] = target: T3, DRD2S (Homo sapiens, UniProt P14416); test: SafetyScan44; conditions: 10 μM
T3 construct: purchased DiscoverX (Eurofins) SafetyScan44
Procedure: as §1

[4] = target: T4, VEGFR2 (Homo sapiens, UniProt P35968); test: SafetyScan44; conditions: 10 μM; Inhibitor mode
T4 construct: purchased DiscoverX (Eurofins) SafetyScan44
Procedure: as §1

[5] = target: T5, AChE (Homo sapiens, UniProt P22303); test: SafetyScan44; conditions: 10 μM; Inhibitor mode
T5 construct: purchased DiscoverX (Eurofins) SafetyScan44
Procedure: as §1

[6] = target: T6, LCK (Homo sapiens, UniProt P06239); test: SafetyScan44; conditions: 10 μM; Inhibitor mode
T6 construct: purchased DiscoverX (Eurofins) SafetyScan44
Procedure: as §1

[7] = target: T7, MAOA (Homo sapiens, UniProt P21397); test: SafetyScan44; conditions: 10 μM; Inhibitor mode
T7 construct: purchased DiscoverX (Eurofins) SafetyScan44
Procedure: as §1

[8] = target: T8, GR (Homo sapiens, UniProt P04150); test: SafetyScan44; conditions: 10 μM
T8 construct: purchased DiscoverX (Eurofins) SafetyScan44
Procedure: as §1

[9] = target: T9, ADRB1 (Homo sapiens, UniProt P08588); test: SafetyScan44; conditions: 10 μM
T9 construct: purchased DiscoverX (Eurofins) SafetyScan44
Procedure: as §1

[10] = target: T10, ADRB2 (Homo sapiens, UniProt P07550); test: SafetyScan44; conditions: 10 μM
T10 construct: purchased DiscoverX (Eurofins) SafetyScan44
Procedure: as §1

[11] = target: T11, INSR (Homo sapiens, UniProt P06213); test: SafetyScan44; conditions: 10 μM; Inhibitor mode
T11 construct: purchased DiscoverX (Eurofins) SafetyScan44
Procedure: as §1

[12] = target: T12, CHRM2 (Homo sapiens, UniProt P08172); test: SafetyScan44; conditions: 10 μM
T12 construct: purchased DiscoverX (Eurofins) SafetyScan44
Procedure: as §1

[13] = target: T13, HRH1 (Homo sapiens, UniProt P35367); test: SafetyScan44; conditions: 10 μM
T13 construct: purchased DiscoverX (Eurofins) SafetyScan44
Procedure: as §1

[14] = target: T14, DRD1 (Homo sapiens, UniProt P21728); test: SafetyScan44; conditions: 10 μM
T14 construct: purchased DiscoverX (Eurofins) SafetyScan44
Procedure: as §1

[15] = target: T15, HTR1B (Homo sapiens, UniProt P28222); test: SafetyScan44; conditions: 10 μM
T15 construct: purchased DiscoverX (Eurofins) SafetyScan44
Procedure: as §1

[16] = target: T16, CAV1.2 (Homo sapiens, UniProt Q13936); test: SafetyScan44; conditions: 10 μM; Blocker mode
T16 construct: purchased DiscoverX (Eurofins) SafetyScan44
Procedure: as §1

[17] = target: T17, ROCK1 (Homo sapiens, UniProt Q13464); test: SafetyScan44; conditions: 10 μM; Inhibitor mode
T17 construct: purchased DiscoverX (Eurofins) SafetyScan44
Procedure: as §1

[18] = target: T18, ADORA2A (Homo sapiens, UniProt P29274); test: SafetyScan44; conditions: 10 μM
T18 construct: purchased DiscoverX (Eurofins) SafetyScan44
Procedure: as §1

[19] = target: T19, HTR2A (Homo sapiens, UniProt P28223); test: SafetyScan44; conditions: 10 μM
T19 construct: purchased DiscoverX (Eurofins) SafetyScan44
Procedure: as §1

[20] = target: T20, PDE4D2 (Homo sapiens, UniProt Q08499); test: SafetyScan44; conditions: 10 μM; Inhibitor mode
T20 construct: purchased DiscoverX (Eurofins) SafetyScan44
Procedure: as §1

[21] = target: T21, OPRD1 (Homo sapiens, UniProt P41143); test: SafetyScan44; conditions: 10 μM
T21 construct: purchased DiscoverX (Eurofins) SafetyScan44
Procedure: as §1

[22] = test system: GABAA; test: SafetyScan44; conditions: 10 μM
Procedure: as §1

[23] = target: T22, NAV1.5 (Homo sapiens, UniProt Q14524); test: SafetyScan44; conditions: 10 μM; Blocker mode
T22 construct: purchased DiscoverX (Eurofins) SafetyScan44
Procedure: as §1

[24] = target: T23, ADRA1A (Homo sapiens, UniProt P35348); test: SafetyScan44; conditions: 10 μM
T23 construct: purchased DiscoverX (Eurofins) SafetyScan44
Procedure: as §1

[25] = target: T24, AVPR1A (Homo sapiens, UniProt P37288); test: SafetyScan44; conditions: 10 μM
T24 construct: purchased DiscoverX (Eurofins) SafetyScan44
Procedure: as §1

[26] = target: T25, CHRM3 (Homo sapiens, UniProt P20309); test: SafetyScan44; conditions: 10 μM
T25 construct: purchased DiscoverX (Eurofins) SafetyScan44
Procedure: as §1

[27] = target: T26, ADRA2A (Homo sapiens, UniProt P08913); test: SafetyScan44; conditions: 10 μM
T26 construct: purchased DiscoverX (Eurofins) SafetyScan44
Procedure: as §1

[28] = target: T27, CCKAR (Homo sapiens, UniProt P32238); test: SafetyScan44; conditions: 10 μM
T27 construct: purchased DiscoverX (Eurofins) SafetyScan44
Procedure: as §1

[29] = target: T28, CNR2 (Homo sapiens, UniProt P34972); test: SafetyScan44; conditions: 10 μM
T28 construct: purchased DiscoverX (Eurofins) SafetyScan44
Procedure: as §1

[30] = target: T29, AR (Homo sapiens, UniProt P10275); test: SafetyScan44; conditions: 10 μM
T29 construct: purchased DiscoverX (Eurofins) SafetyScan44
Procedure: as §1

[31] = in vitro; conditions: human
Procedure: (§2) The study was performed by Cyprotex according to service provider’s protocol. In brief NHBE cells were plated on 96-well plate. The cells were dosed with test compound at 0.0457, 0.137, 0.412, 1.24, 3.7, 11.1, 33.3, 100 μM and incubated for 48 h. The cells were loaded with dye or antibody relevant for each health marker and scanned using fluorescent cell imager. The following parameters were studied: cell count, nuclear size, DNA structure, mitochondrial mass, mitochondrial membrane potential, oxidative stress, glutathione content. The baseline for each parameter was determined based on vehicle control sample. The software calculates the percentage of cells that are low or high responders (depending on the biological significance of a particular readout). The vehicle control wells are then used to determine significance limits for wells that have a greater than expected fraction of low or high responders. The minimum effective concentration was determined from the lowest concentration whose mean value exceeds the significance level and provided either a clear dose-response relationship or at least two consecutive concentration points past the significance level.

[32] = test system: Normal Human Bronchial Epithelial (NHBE) cells; test: in vitro; conditions: 48 h
Procedure: as §2

T23 sequence (P35348 whole entry): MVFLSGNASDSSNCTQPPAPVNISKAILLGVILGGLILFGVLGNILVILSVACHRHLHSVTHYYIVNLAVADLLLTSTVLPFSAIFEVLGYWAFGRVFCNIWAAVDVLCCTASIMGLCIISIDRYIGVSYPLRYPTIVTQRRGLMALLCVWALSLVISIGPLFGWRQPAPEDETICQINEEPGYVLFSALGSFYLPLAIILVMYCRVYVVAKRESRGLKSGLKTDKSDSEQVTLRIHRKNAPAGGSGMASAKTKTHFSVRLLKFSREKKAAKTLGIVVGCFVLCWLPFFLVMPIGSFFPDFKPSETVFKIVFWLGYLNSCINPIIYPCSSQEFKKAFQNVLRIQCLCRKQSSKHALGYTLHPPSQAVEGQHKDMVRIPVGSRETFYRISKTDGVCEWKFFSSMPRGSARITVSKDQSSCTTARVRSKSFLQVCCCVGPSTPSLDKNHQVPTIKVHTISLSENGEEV
T28 sequence (P34972 whole entry): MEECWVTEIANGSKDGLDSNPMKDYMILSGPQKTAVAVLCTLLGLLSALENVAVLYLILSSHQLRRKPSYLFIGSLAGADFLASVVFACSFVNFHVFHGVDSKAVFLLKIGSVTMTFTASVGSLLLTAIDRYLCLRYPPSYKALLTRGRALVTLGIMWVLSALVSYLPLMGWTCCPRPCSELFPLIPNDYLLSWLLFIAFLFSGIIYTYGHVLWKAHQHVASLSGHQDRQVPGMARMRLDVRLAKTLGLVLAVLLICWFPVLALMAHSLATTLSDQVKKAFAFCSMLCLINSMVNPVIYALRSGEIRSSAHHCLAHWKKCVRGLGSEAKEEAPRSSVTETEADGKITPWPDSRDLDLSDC
T25 sequence (P20309 whole entry): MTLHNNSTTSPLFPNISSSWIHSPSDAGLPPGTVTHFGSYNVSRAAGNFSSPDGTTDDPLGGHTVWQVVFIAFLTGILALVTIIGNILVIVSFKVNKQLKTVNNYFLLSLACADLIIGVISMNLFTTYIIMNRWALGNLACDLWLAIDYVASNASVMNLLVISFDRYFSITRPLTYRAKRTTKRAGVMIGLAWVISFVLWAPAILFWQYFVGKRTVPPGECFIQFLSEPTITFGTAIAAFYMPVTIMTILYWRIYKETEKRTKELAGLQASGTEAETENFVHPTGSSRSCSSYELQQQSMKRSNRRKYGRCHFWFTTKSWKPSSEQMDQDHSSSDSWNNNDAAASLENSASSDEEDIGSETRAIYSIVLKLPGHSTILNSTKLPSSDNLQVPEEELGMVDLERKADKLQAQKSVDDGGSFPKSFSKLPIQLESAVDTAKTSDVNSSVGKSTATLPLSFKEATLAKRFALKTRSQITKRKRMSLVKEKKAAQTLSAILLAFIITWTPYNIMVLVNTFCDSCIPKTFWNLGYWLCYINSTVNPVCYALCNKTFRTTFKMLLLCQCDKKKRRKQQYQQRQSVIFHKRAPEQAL
T1 sequence (P25101 21-427): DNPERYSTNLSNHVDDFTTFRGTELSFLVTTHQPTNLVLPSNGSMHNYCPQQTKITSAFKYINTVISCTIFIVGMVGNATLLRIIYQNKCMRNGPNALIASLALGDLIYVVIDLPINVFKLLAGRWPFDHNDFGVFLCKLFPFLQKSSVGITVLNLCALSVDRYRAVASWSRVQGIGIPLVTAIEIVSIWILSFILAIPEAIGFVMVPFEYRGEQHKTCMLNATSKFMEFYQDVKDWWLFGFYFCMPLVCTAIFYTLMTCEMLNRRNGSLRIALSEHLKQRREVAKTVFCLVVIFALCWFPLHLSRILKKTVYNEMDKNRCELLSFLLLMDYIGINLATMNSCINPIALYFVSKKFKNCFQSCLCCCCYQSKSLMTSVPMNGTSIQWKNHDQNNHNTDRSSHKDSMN
T15 sequence (P28222 whole entry): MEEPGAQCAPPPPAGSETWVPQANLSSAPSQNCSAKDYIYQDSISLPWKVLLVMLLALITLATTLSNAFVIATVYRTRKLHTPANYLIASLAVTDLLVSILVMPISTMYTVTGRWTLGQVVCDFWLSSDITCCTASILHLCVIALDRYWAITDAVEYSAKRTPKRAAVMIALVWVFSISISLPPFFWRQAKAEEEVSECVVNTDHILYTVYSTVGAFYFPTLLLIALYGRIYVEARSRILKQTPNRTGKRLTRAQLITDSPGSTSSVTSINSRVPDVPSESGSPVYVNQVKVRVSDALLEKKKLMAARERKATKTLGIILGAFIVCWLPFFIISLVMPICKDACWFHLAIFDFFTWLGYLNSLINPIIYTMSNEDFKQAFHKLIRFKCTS
T10 sequence (P07550 whole entry): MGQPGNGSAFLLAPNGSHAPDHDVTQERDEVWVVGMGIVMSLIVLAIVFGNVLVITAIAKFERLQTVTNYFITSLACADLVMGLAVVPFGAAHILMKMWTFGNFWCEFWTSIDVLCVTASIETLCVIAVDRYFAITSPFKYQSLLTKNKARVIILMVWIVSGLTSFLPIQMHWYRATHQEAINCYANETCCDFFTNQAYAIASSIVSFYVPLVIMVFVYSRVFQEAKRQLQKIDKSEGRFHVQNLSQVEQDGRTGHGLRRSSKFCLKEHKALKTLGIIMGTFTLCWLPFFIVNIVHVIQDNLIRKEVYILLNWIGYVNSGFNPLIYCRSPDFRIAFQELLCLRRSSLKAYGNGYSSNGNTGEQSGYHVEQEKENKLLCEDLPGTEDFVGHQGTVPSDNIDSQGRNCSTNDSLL
T14 sequence (P21728 whole entry): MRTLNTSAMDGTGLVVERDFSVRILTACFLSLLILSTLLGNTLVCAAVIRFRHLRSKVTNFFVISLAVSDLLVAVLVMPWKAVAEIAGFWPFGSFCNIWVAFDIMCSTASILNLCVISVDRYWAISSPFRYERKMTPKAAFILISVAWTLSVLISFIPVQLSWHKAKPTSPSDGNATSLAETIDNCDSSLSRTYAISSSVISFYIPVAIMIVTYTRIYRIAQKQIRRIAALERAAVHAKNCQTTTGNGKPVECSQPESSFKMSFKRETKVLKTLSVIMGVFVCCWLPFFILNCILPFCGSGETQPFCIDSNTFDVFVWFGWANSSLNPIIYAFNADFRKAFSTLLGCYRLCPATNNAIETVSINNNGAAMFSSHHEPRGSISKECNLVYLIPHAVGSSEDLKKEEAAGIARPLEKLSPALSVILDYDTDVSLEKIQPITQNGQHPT
T8 sequence (P04150 whole entry): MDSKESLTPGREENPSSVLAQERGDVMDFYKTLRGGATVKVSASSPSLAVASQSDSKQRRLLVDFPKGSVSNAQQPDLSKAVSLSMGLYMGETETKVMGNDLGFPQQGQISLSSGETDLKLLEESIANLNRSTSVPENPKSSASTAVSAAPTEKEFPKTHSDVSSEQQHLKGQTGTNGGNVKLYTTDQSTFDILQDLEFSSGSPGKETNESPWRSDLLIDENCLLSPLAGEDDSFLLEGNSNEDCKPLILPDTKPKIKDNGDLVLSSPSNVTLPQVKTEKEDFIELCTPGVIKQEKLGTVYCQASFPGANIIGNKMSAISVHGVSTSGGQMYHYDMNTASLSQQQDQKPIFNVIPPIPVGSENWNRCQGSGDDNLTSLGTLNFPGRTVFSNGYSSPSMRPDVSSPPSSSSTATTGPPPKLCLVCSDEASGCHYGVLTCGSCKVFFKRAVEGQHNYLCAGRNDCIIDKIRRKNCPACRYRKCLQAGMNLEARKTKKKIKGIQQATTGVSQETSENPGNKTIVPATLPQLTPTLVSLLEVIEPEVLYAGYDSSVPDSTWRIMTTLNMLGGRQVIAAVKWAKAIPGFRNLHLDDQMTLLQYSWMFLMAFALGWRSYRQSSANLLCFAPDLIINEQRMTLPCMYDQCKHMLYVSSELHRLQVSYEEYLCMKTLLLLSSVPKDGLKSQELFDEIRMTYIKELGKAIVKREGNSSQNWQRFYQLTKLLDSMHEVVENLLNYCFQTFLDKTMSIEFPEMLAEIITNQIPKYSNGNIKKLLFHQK
T13 sequence (P35367 whole entry): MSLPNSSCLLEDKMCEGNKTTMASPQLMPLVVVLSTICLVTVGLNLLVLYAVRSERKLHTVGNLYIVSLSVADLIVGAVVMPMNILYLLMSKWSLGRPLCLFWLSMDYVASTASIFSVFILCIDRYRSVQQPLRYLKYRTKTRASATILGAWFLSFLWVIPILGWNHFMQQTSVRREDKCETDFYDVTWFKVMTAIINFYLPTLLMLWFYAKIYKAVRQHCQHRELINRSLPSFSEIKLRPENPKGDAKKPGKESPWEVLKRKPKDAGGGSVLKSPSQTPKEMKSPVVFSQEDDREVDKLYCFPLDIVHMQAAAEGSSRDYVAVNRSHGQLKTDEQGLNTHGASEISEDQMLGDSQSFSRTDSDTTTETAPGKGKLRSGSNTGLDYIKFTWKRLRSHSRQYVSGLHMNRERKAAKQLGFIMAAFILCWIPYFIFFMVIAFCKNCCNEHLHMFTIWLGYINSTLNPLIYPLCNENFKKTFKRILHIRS
T19 sequence (P28223 whole entry): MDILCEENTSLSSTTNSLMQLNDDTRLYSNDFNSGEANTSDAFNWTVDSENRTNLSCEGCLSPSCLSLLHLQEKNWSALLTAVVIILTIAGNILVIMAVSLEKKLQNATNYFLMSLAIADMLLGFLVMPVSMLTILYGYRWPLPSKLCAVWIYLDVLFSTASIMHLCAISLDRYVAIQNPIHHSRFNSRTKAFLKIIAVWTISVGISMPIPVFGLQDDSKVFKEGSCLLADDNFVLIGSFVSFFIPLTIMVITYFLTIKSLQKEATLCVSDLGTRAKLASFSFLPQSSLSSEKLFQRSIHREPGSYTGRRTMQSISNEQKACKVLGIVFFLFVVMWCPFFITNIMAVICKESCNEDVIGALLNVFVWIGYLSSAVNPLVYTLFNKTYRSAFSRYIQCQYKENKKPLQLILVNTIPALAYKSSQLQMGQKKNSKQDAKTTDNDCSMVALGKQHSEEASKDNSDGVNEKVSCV

For `CC(C)(C)N1CCN(Cc2cc3nc(-c4cncc5[nH]ccc45)cc(N4CCOCC4)n3n2)CC1` [CPL302-253], the “% Response EDNRA Agonist” value ([1]; Agonist mode) was -3.3%, the “% Response EDNRA Antagonist” value ([1]; Antagonist mode) was -4.8% and the “% Response COX1 Inhibitor” value [2] was 4.7%. For the same compound, the “% Response DRD2S Agonist” value ([3]; Agonist mode) was -4.5%, the “% Response DRD2S Antagonist” value ([3]; Antagonist mode) was -1.1% and the “% Response VEGFR2 Inhibitor” value [4] was 30.7%. For the same compound, the “% Response AChE Inhibitor” value [5] was 27.8%, the “% Response LCK Inhibitor” value [6] was 16.3% and the “% Response MAOA Inhibitor” value [7] was 8.5%. For the same compound, the “% Response GR Agonist” value ([8]; Agonist mode) was 0.0%, the “% Response GR Antagonist” value ([8]; Antagonist mode) was -5.6% and the “% Response ADRB1 Agonist” value ([9]; Agonist mode) was 0.5%. The “% Response ADRB1 Antagonist” value ([9]; Antagonist mode) was 26.6%, the “% Response ADRB2 Agonist” value ([10]; Agonist mode) was 0.5% and the “% Response ADRB2 Antagonist” value ([10]; Antagonist mode) was 17.7%. For the same compound, the “% Response INSR Inhibitor” value [11] was -6.5%, the “% Response CHRM2 Agonist” value ([12]; Agonist mode) was 8.2% and the “% Response CHRM2 Antagonist” value ([12]; Antagonist mode) was 35.2%. The “% Response HRH1 Agonist” value ([13]; Agonist mode) was -0.2%, the “% Response HRH1 Antagonist” value ([13]; Antagonist mode) was 7.2% and the “% Response DRD1 Agonist” value ([14]; Agonist mode) was 1.1%. For the same compound, the “% Response DRD1 Antagonist” value ([14]; Antagonist mode) was 9.3%, the “% Response HTR1B Agonist” value ([15]; Agonist mode) was 8.0% and the “% Response HTR1B Antagonist” value ([15]; Antagonist mode) was 0.1%. The “% Response CAV1.2 Blocker” value [16] was -1.1%, the “% Response ROCK1 Inhibitor” value [17] was 10.3% and the “% Response ADORA2A Agonist” value ([18]; Agonist mode) was -0.8%. The “% Response ADORA2A Antagonist” value ([18]; Antagonist mode) was 11.7%, the “% Response HTR2A Agonist” value ([19]; Agonist mode) was -1.5% and the “% Response HTR2A Antagonist” value ([19]; Antagonist mode) was 11.5%. For the same compound, the “% Response PDE4D2 Inhibitor” value [20] was 2.0%, the “% Response OPRD1 Agonist” value ([21]; Agonist mode) was -6.4% and the “% Response OPRD1 Antagonist” value ([21]; Antagonist mode) was 0.4%. For the same compound, the “% Response GABAA Blocker” value ([22]; Blocker mode) was 1.4%, the “% Response GABAA Opener” value ([22]; Opener mode) was -2.3% and the “% Response NAV1.5 Blocker” value [23] was 9.7%. The “% Response ADRA1A Agonist” value ([24]; Agonist mode) was -22.5%, the “% Response ADRA1A Antagonist” value ([24]; Antagonist mode) was -2.8% and the “% Response AVPR1A Agonist” value ([25]; Agonist mode) was -3.2%. The “% Response AVPR1A Antagonist” value ([25]; Antagonist mode) was -5.2%, the “% Response CHRM3 Agonist” value ([26]; Agonist mode) was 1.2% and the “% Response CHRM3 Antagonist” value ([26]; Antagonist mode) was 12.6%. The “% Response ADRA2A Agonist” value ([27]; Agonist mode) was 0.4%, the “% Response ADRA2A Antagonist” value ([27]; Antagonist mode) was -0.7% and the “% Response CCKAR Agonist” value ([28]; Agonist mode) was -2.8%. The “% Response CCKAR Antagonist” value ([28]; Antagonist mode) was -2.4%, the “% Response CNR2 Agonist” value ([29]; Agonist mode) was 16.4% and the “% Response CNR2 Antagonist” value ([29]; Antagonist mode) was 1.1%. For the same compound, the “% Response AR Agonist” value ([30]; Agonist mode) was -0.7%, the “% Response AR Antagonist” value ([30]; Antagonist mode) was 8.5% and the AC50 at 48 h [31] was greater than 100 µM. For the same compound, the AC50 [32] was greater than 100 µM, the “MEC Cell count” value [32] was 50.6 µM and the “MEC DNA structure” value [32] was 24.4 µM. For the same compound, the “MEC Glutathione content” value [32] was 10.6 µM, the “MEC Mitochondrial mass” value [32] was 20.8 µM and the “MEC Mitochondrial membrane potential” value [32] was 22.8 µM. The “MEC Nuclear size” value [32] was 75.3 µM, the “MEC Oxidative stress” value [32] was 16.1 µM and the “lowest concentration influencing any cell health parameter” value [32] was no less than 10 µM.
